Laboratory results from US9149038B2, “4-amino-6-(heterocyclic)picolinates and 6-amino-2-(heterocyclic)pyrimidine-4-carboxylates and their use as herbicides” (Dow AgroSciences LLC, priority 2013, dated 2015).
Like-named read-outs stand apart in the source and are kept apart here.

Test system: Direct Seeded Rice and weed species
Test: Postemergence herbicidal activity in direct seeded rice, visual rating after 20-22 days and probit GR20/GR50/GR80/GR90 (Table 14)
Assay type: in vivo
Conditions: for pest or weed control at 17.5 g/ha / pest or weed control at 35 g/ha / pest or weed control at 70 g/ha: post-emergence, 504 h, postemergence; for pest or weed control at 17.5 g/ha: 17.5 g ai/ha; for pest or weed control at 35 g/ha: 35 g ai/ha; for pest or weed control at 70 g/ha: 70 g ai/ha
In short: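 Visual injury scores (0 = none, 100 = complete kill) taken 20-22 days after treatment and fitted by probit analysis over several doses to give GR20/GR50/GR80/GR90. Plants at 2nd–3rd true leaf in pH about 8.1 loam–sand mix received track-sprayer applications of 187 L/ha containing 1.25% (v/v) crop oil concentrate.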

[1] = BRAPP (broadleaf signalgrass, Brachiaria platyphylla), read-out: Visual Growth Reduction (%) 21 Days After Application BRAPP
[2] = CYPDI (small-flower flatsedge, Cyperus difformis), read-out: Visual Growth Reduction (%) 21 Days After Application CYPDI
[3] = CYPES (yellow nutsedge, Cyperus esculentus), read-out: Visual Growth Reduction (%) 21 Days After Application CYPES
[4] = CYPIR (rice flatsedge, Cyperus iria), read-out: Visual Growth Reduction (%) 21 Days After Application CYPIR
[5] = DIGSA (large crabgrass, Digitaria sanguinalis), read-out: Visual Growth Reduction (%) 21 Days After Application DIGSA
[6] = ECHCG (barnyardgrass, Echinochloa crus-galli), read-out: Visual Growth Reduction (%) 21 Days After Application ECHCG
[7] = ECHCO (junglerice, Echinochloa colonum), read-out: Visual Growth Reduction (%) 21 Days After Application ECHCO
[8] = LEFCH (Chinese sprangletop, Leptochloa chinensis), read-out: Visual Growth Reduction (%) 21 Days After Application LEFCH
[9] = ORYSJ (Oryza sativa, rice crop), read-out: Visual Growth Reduction (%) 21 Days After Application ORYSJ
[10] = ORYSK (Oryza sativa, rice crop), read-out: Visual Growth Reduction (%) 21 Days After Application ORYSK
[11] = SCPJU (Japanese bulrush, Schoenoplectus juncoides Roxb.), read-out: Visual Growth Reduction (%) 21 Days After Application SCPJU
[12] = SEBEX (hemp sesbania, Sesbania exaltata), read-out: Visual Growth Reduction (%) 21 Days After Application SEBEX

Question: Which results are given for `COc1c(C(=O)O)nc(-c2ccc3c(c2)OC(F)(F)O3)c(F)c1N` [Compound 25]?
Answer: GR50 BRAPP (BRAPP (Brachiaria platyphylla), probit analysis, dose for 50 percent growth reduction): 4 g ai/ha; GR80 BRAPP (BRAPP (Brachiaria platyphylla), probit analysis, dose for 80 percent growth reduction): 9 g ai/ha; GR90 BRAPP (BRAPP (Brachiaria platyphylla), probit analysis, dose for 90 percent growth reduction): 13 g ai/ha; GR50 CYPDI (CYPDI (Cyperus difformis), probit analysis, dose for 50 percent growth reduction): 0.04 g ai/ha; GR80 CYPDI (CYPDI (Cyperus difformis), probit analysis, dose for 80 percent growth reduction): 1 g ai/ha; GR90 CYPDI (CYPDI (Cyperus difformis), probit analysis, dose for 90 percent growth reduction): 2 g ai/ha; GR50 CYPES (CYPES (Cyperus esculentus), probit analysis, dose for 50 percent growth reduction): 0.04 g ai/ha; GR80 CYPES (CYPES (Cyperus esculentus), probit analysis, dose for 80 percent growth reduction): 1 g ai/ha; GR90 CYPES (CYPES (Cyperus esculentus), probit analysis, dose for 90 percent growth reduction): 1 g ai/ha; GR50 CYPIR (CYPIR (Cyperus iria), probit analysis, dose for 50 percent growth reduction): 2 g ai/ha; GR80 CYPIR (CYPIR (Cyperus iria), probit analysis, dose for 80 percent growth reduction): 5 g ai/ha; GR90 CYPIR (CYPIR (Cyperus iria), probit analysis, dose for 90 percent growth reduction): 9 g ai/ha; GR50 DIGSA (DIGSA (Digitaria sanguinalis), probit analysis, dose for 50 percent growth reduction): 27 g ai/ha; GR80 DIGSA (DIGSA (Digitaria sanguinalis), probit analysis, dose for 80 percent growth reduction): 2530 g ai/ha; GR90 DIGSA (DIGSA (Digitaria sanguinalis), probit analysis, dose for 90 percent growth reduction): 27000 g ai/ha; GR50 ECHCG (ECHCG (Echinochloa crus-galli), probit analysis, dose for 50 percent growth reduction): 0.025 g ai/ha; GR80 ECHCG (ECHCG (Echinochloa crus-galli), probit analysis, dose for 80 percent growth reduction): 1 g ai/ha; GR90 ECHCG (ECHCG (Echinochloa crus-galli), probit analysis, dose for 90 percent growth reduction): 3 g ai/ha; GR50 ECHCO (ECHCO (Echinochloa colonum), probit analysis, dose for 50 percent growth reduction): 2 g ai/ha; GR80 ECHCO (ECHCO (Echinochloa colonum), probit analysis, dose for 80 percent growth reduction): 4 g ai/ha; GR90 ECHCO (ECHCO (Echinochloa colonum), probit analysis, dose for 90 percent growth reduction): 6 g ai/ha; GR50 LEFCH (LEFCH (Leptochloa chinensis), probit analysis, dose for 50 percent growth reduction): 175 g ai/ha; GR80 LEFCH (LEFCH (Leptochloa chinensis), probit analysis, dose for 80 percent growth reduction): 463 g ai/ha; GR90 LEFCH (LEFCH (Leptochloa chinensis), probit analysis, dose for 90 percent growth reduction): 770 g ai/ha; GR20 ORYSJ (ORYSJ (Oryza sativa, rice crop), probit analysis, dose for 20 percent growth reduction): 1 g ai/ha; GR20 ORYSK (ORYSK (Oryza sativa, rice crop), probit analysis, dose for 20 percent growth reduction): 3 g ai/ha; GR50 SCPJU (SCPJU (Schoenoplectus juncoides Roxb.), probit analysis, dose for 50 percent growth reduction): 0.0001 g ai/ha; GR80 SCPJU (SCPJU (Schoenoplectus juncoides Roxb.), probit analysis, dose for 80 percent growth reduction): 0.0001 g ai/ha; GR90 SCPJU (SCPJU (Schoenoplectus juncoides Roxb.), probit analysis, dose for 90 percent growth reduction): 0.0001 g ai/ha; GR50 SEBEX (SEBEX (Sesbania exaltata), probit analysis, dose for 50 percent growth reduction): 19 g ai/ha; GR80 SEBEX (SEBEX (Sesbania exaltata), probit analysis, dose for 80 percent growth reduction): 26 g ai/ha; GR90 SEBEX (SEBEX (Sesbania exaltata), probit analysis, dose for 90 percent growth reduction): 30 g ai/ha; pest or weed control at 17.5 g/ha [1]: 95 to 100%; pest or weed control at 35 g/ha [1]: 95 to 100%; pest or weed control at 70 g/ha [1]: 95 to 100%; pest or weed control at 17.5 g/ha [2]: 95 to 100%; pest or weed control at 35 g/ha [2]: 95 to 100%; pest or weed control at 70 g/ha [2]: 95 to 100%; pest or weed control at 17.5 g/ha [3]: 95 to 100%; pest or weed control at 35 g/ha [3]: 95 to 100%; pest or weed control at 70 g/ha [3]: 95 to 100%; pest or weed control at 17.5 g/ha [4]: 85 to 94%; pest or weed control at 35 g/ha [4]: 95 to 100%; pest or weed control at 70 g/ha [4]: 95 to 100%; pest or weed control at 17.5 g/ha [5]: 30 to 44%; pest or weed control at 35 g/ha [5]: 60 to 74%; pest or weed control at 70 g/ha [5]: 60 to 74%; pest or weed control at 17.5 g/ha [6]: 95 to 100%; pest or weed control at 35 g/ha [6]: 95 to 100%; pest or weed control at 70 g/ha [6]: 95 to 100%; pest or weed control at 17.5 g/ha [7]: 95 to 100%; pest or weed control at 35 g/ha [7]: 95 to 100%; pest or weed control at 70 g/ha [7]: 95 to 100%; pest or weed control at 17.5 g/ha [8]: 0 to 29%; pest or weed control at 35 g/ha [8]: 0 to 29%; pest or weed control at 70 g/ha [8]: 0 to 29%; pest or weed control at 17.5 g/ha [9]: 85 to 94%; pest or weed control at 35 g/ha [9]: 95 to 100%; pest or weed control at 70 g/ha [9]: 95 to 100%; pest or weed control at 17.5 g/ha [10]: 85 to 94%; pest or weed control at 35 g/ha [10]: 85 to 94%; pest or weed control at 70 g/ha [10]: 95 to 100%; pest or weed control at 17.5 g/ha [11]: 95 to 100%; pest or weed control at 35 g/ha [11]: 95 to 100%; pest or weed control at 70 g/ha [11]: 95 to 100%; pest or weed control at 17.5 g/ha [12]: 0 to 29%; pest or weed control at 35 g/ha [12]: 95 to 100%; pest or weed control at 70 g/ha [12]: 95 to 100%
